Measured values taken from ChEMBL document CHEMBL1121491, “Ultraviolet photoelectron spectroscopy of cyclic amidines. 2. Electronic structure of clonidine and some related 2-(phenylimino)imidazolidines with alpha-adrenergic activity” (1980).

Test system: Rattus norvegicus
Experiment: Hypotensive activity by intravenous administration to rats
Format: functional

Point of comparison: `Fc1cccc(F)c1N=C1NCCN1`, Log 1/ED50 -0.41. Against it:
- c1cc2c(c(NC3=NCCN3)c1)CCCC2 [TRAMAZOLINE] — higher, 0.47
- Cc1ccccc1N=C1NCCN1 — lower, -0.67
- Clc1cccc(Cl)c1NC1=NCCN1 [CLONIDINE] — higher, 1.99
- c1ccc(NC2=NCCN2)cc1 — lower, -2.1
- Cc1cccc(C)c1N=C1NCCN1 — higher, 0.85
- Clc1ccccc1N=C1NCCN1 — higher, 0.13
